In patent US20040106584A1, “Prophylactic docosahexaenoic acid therapy for patients with subclinical inflammation” (priority 2002, published 2004):

Assays:
[1] = cited from earlier work
obese diabetic mice = conditions: 100 mg/kg body weight, but not normal or lean diabetic mice; cited from earlier work
[2] = tested on: ADP-induced platelet aggregation; conditions: oral loading dose of 300-600 mg; cited from earlier work
[3] = in vivo; cited from earlier work
C-reactive protein (CRP) = experiment: Clinical study of DHASCO capsules co-administered with statin in dyslipidemia patients: CRP levels; type: in vivo, human; conditions: 20 patients treated with DHA, 200 or 1000 mg daily
Protocol: In a clinical study DHASCO capsules (which contained DHA as a triglyceride oil extracted from Crypthecodinium cohnii cells, obtained from Martek Biosciences Corp., Columbia, Md.) were co-administered with statin medication to patients with dyslipidemia. Hyperlipidemic patients already being treated with a stable dose of a statin medication but still failing to meet NCEP guidelines for LDL-cholesterol or triglycerides were treated with either 200 or 1000 mg of DHA daily for 12 months. HbAlc levels (glycosylated hemoglobin, a marker of glycemic control) were measured in plasma at baseline and after 8 or 12 months of treatment.
Reduction in CRP of this extent is clinically significant, and may be correlated with a benefit of reduced risk of Type II diabetes onset, independent of other Type II risk factors.

[4] = molecular target: T1, platelet glycoprotein IIb/IIa receptors (Homo sapiens, UniProt P05106+P08514); conditions: cited from earlier work
T1 construct: host or cells: platelets in vivo (endogenous receptor)

**Q.** With `CC(=O)Oc1ccccc1C(=O)O` [Aspirin, acetylsalicylic acid] as the molecule, how does the “reduction of the risk of serious vascular events” value ([1]; patients at high risk of such an event) read?
**A.** about a quarter

**Q.** What does the source list for `CC/C=C\C/C=C\C/C=C\C/C=C\C/C=C\C/C=C\CCC(=O)OCC` [DHA ethyl ester]?
**A.** blood glucose (obese diabetic mice): reduced; insulin sensitivity (obese diabetic mice): enhanced; plasma triglycerides (obese diabetic mice): reduced

**Q.** Which results are given for `COC(=O)[C@H](c1ccccc1Cl)N1CCc2sccc2C1` [Clopidogrel]?
**A.** reduction of the risk of serious vascular events compared with aspirin ([1]; high-risk patients): about 10%; time to detectable inhibition of ADP-induced platelet aggregation [2]: 2 h; time to maximal inhibition of ADP-induced platelet aggregation [2]: 6 h; risk of skin rash and diarrhea compared with aspirin [3]: about a third

**Q.** Which “risk of skin rash and diarrhea compared with aspirin” value [3] does the source give for `Clc1ccccc1CN1CCc2sccc2C1` [Ticlopidine] here?
**A.** doubles

**Q.** Which “overall reduction in CRP level” value (C-reactive protein (CRP)) does the source give for `CC/C=C\C/C=C\C/C=C\C/C=C\C/C=C\C/C=C\CCC(=O)O` [DHA, docosahexaenoic acid] here?
**A.** 15%

**Q.** For “abciximab: humanized mouse antibody fragment with a high binding affinity for the glycoprotein IIb/IIa receptor”, which “persistent blockade of platelet glycoprotein IIb/IIa receptors” value ([4]; 24 hours after cessation of an infusion) is on record?
**A.** more than 50%

**Q.** And the “time to recovery of platelet function” value ([4]; after cessation of an infusion)?
**A.** 2 days
